Assay results reported in patent US20070128217A1 (priority 2003, published 2007).

Experiments:
[1] = tested on: control sera (pooled serum of ten healthy LUMC hospital workers; commercial negative donor pooled serum from the Dutch bloodbank); format: binding, human
[2] = tested on: antibodies in sera from SARS patients (sera 1a, 1b, 2, 6, 37, 62, London, SARS-yellow, SARS-green); format: binding, human
[3] = tested on: rabbit serum obtained by immunizing a rabbit with the SARS-CoV strain Frankfurt 1; format: binding; design: Binding of a rabbit serum to linear peptides / Binding of a rabbit serum to looped peptides / Rabbit serum linear peptides / Rabbit serum looped peptides / Binding of a rabbit serum to linear peptides of protein N of SARS-CoV Urbani (Rabbit serum linear peptides) / Binding of a rabbit serum to looped/cyclic peptides of protein N of SARS-CoV Urbani (Rabbit serum looped peptides): unit not given here

Row | Sequence | Binding of Control Serum Blood-Bank to Looped peptides [1] | Binding of Control serum Blood-bank to linear peptides [1] | Binding of Control serum LUMC to linear peptides [1] | Binding of Control serum LUMC to looped peptides [1] | Binding of serum 1a to linear peptides of protein E of SARS-CoV Urbani [2] | Binding of serum 1a to looped/cyclic peptides of protein E of SARS-CoV Urbani [2] | Binding of serum 1b to linear peptides of protein E of SARS-CoV Urbani [2] | Binding of serum 1b to looped/cyclic peptides of protein E of SARS-CoV Urbani [2] | Binding of serum 2 to linear peptides of protein E of SARS-CoV Urbani [2] | Binding of serum 2 to looped/cyclic peptides of protein E of SARS-CoV Urbani [2] | Binding of serum 6 to linear peptides of protein E of SARS-CoV Urbani [2] | Binding of serum 6 to looped/cyclic peptides of protein E of SARS-CoV Urbani [2] | Binding of serum 37 to linear peptides of protein E of SARS-CoV Urbani [2] | Binding of serum 37 to looped/cyclic peptides of protein E of SARS-CoV Urbani [2] | Binding of serum 62 to linear peptides of protein E of SARS-CoV Urbani [2] | Binding of serum 62 to looped/cyclic peptides of protein E of SARS-CoV Urbani [2] | Binding of serum London to linear peptides of protein E of SARS-CoV Urbani [2] | Binding of serum London to looped/cyclic peptides of protein E of SARS-CoV Urbani [2] | Binding of serum SARS-green to linear peptides of protein E of SARS-CoV Urbani [2] | Binding of serum SARS-green to looped/cyclic peptides of protein E of SARS-CoV Urbani [2] | further results
1 | VFLLVTLAILTALRL | 0.4 | 0.5 | 0.3 | 0.5 | 0.7 | 0.4 | 0.4 | 0.2 | 0.4 | 0.4 | 0.5 | 0.2 | 0.6 | 0.4 | 0.6 | 0.5 | 0.5 | 0.3 | 0.4 | 0.2 | Binding of serum SARS-yellow to linear peptides of protein E of SARS-CoV Urbani [2]: 0.0; Binding of serum SARS-yellow to looped/cyclic peptides of protein E of SARS-CoV Urbani [2]: 0.5; Binding of a rabbit serum to linear peptides [3]: 0.4; Binding of a rabbit serum to looped peptides [3]: 0.3
2 | VLLFLAFVVFLLVTL | 0.5 | 0.8 | 0.5 | 0.7 | 0.8 | 0.6 | 0.9 | 0.5 | 0.8 | 0.5 | 0.9 | 0.4 | 0.8 | 0.6 | 0.8 | 0.8 | 0.6 | 0.4 | 0.5 | 0.3 | Binding of serum SARS-yellow to linear peptides of protein E of SARS-CoV Urbani [2]: 0.3; Binding of serum SARS-yellow to looped/cyclic peptides of protein E of SARS-CoV Urbani [2]: 0.6; Binding of a rabbit serum to linear peptides [3]: 0.5; Binding of a rabbit serum to looped peptides [3]: 0.5
3 | VSEETGTLIVNSVLL | 0.9 | 0.8 | 0.5 | 0.7 | 0.8 | 0.7 | 0.5 | 0.6 | 0.3 | 0.6 | 0.4 | 0.5 | 0.5 | 0.7 | 0.7 | 0.9 | 0.5 | 0.5 | 0.4 | 0.6 | Binding of serum SARS-yellow to linear peptides of protein E of SARS-CoV Urbani [2]: 0.1; Binding of serum SARS-yellow to looped/cyclic peptides of protein E of SARS-CoV Urbani [2]: 0.7; Binding of a rabbit serum to linear peptides [3]: 0.4; Binding of a rabbit serum to looped peptides [3]: 0.1
4 | YSFVSEETGTLIVNS | 0.6 | 0.7 | 1.0 | 0.8 | 0.8 | 0.7 | 0.7 | 0.5 | 0.5 | 0.7 | 0.5 | 0.4 | 0.6 | 0.8 | 0.5 | 0.8 | 0.7 | 0.4 | 0.7 | 0.4 | Binding of serum SARS-yellow to linear peptides of protein E of SARS-CoV Urbani [2]: 0.6; Binding of serum SARS-yellow to looped/cyclic peptides of protein E of SARS-CoV Urbani [2]: 0.7; Binding of a rabbit serum to linear peptides [3]: 0.2; Binding of a rabbit serum to looped peptides [3]: 0.4
